Experimental data taken from article PMC12333026, “Versatile Imidazole Scaffold with Potent Activity against Multiple Apicomplexan Parasites” (ACS Infectious Diseases, 2025).
Read-outs that look alike come from different tables or passages of the source.

How the values were obtained:
PfPKG [1] = target: T1, PfPKG (Plasmodium falciparum, UniProt Q8I719); parameters: method as in number not shown in text; details: enantiomer comparison; recently reported by the authors, ref number not shown in text; cited from earlier work
T1 sequence (Q8I719 whole entry): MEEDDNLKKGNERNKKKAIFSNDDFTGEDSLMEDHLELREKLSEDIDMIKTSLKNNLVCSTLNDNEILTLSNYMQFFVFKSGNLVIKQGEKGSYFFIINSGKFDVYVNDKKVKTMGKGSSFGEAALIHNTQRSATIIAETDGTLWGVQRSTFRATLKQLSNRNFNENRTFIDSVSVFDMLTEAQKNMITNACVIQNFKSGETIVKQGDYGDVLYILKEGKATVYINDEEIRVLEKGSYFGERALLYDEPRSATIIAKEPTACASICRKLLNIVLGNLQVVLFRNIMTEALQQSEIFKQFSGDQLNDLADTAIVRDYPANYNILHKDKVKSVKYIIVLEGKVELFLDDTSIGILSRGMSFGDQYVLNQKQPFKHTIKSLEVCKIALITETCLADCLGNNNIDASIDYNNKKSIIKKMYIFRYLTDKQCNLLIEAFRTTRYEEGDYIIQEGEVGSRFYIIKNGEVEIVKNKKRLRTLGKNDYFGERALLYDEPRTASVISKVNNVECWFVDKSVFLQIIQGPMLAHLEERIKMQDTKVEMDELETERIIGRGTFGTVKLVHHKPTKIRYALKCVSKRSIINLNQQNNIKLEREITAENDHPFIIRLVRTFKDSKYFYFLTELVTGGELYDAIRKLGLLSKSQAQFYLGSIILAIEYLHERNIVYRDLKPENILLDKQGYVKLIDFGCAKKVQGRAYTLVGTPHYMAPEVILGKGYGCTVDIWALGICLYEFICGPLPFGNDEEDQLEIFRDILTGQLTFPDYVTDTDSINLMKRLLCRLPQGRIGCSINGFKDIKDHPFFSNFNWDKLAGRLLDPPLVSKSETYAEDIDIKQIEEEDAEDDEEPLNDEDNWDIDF

PfPKG [2] = target: T1, PfPKG; assay: PfPKG enzyme activity assay, recombinant WT; type: biochemical; details: recombinant enzyme; ADP-Glo assay; mean ± SD, n = 2–3 experiments; read-out: enzyme IC50 (±SD) PfPKG WT
Experimental: (§1) Direct inhibition of recombinant PfPKG phosphorylation activity was carried out using a previously described nonradioactive assay. The assay evaluates PfPKG activity based on changes in initial ATP concentration via luminescence after enzyme phosphorylation of peptide substrate PKCtide ([…]) (SignalChem, Richmond, BC Canada). Enzyme kinase activity was measured in the presence of 26 μM PKCtide; 50.1 nM PfPKG; and 20 μM cGMP in a buffered solution containing 20 mM β-glycerol-phosphate, 20 mM MgCl2, 25 mM HEPES pH 7.5 (KOH), 0.1% BSA and 2 mM DTT. The reaction was activated by the addition of 10 μM ATP with incubation at 30 °C and 90 rpm agitation for 120 min. […] Each assay plate contained reaction wells with no enzyme, no PKCtide peptide substrate and no cGMP as internal controls.

PfPKG T618Q = PfPKG T618Q (Plasmodium falciparum, UniProt Q8I719, T618Q); assay: PfPKG enzyme activity assay, T618Q gatekeeper mutant; type: biochemical, P. falciparum
PfPKG T618Q, sequence (Q8I719 whole entry T618Q): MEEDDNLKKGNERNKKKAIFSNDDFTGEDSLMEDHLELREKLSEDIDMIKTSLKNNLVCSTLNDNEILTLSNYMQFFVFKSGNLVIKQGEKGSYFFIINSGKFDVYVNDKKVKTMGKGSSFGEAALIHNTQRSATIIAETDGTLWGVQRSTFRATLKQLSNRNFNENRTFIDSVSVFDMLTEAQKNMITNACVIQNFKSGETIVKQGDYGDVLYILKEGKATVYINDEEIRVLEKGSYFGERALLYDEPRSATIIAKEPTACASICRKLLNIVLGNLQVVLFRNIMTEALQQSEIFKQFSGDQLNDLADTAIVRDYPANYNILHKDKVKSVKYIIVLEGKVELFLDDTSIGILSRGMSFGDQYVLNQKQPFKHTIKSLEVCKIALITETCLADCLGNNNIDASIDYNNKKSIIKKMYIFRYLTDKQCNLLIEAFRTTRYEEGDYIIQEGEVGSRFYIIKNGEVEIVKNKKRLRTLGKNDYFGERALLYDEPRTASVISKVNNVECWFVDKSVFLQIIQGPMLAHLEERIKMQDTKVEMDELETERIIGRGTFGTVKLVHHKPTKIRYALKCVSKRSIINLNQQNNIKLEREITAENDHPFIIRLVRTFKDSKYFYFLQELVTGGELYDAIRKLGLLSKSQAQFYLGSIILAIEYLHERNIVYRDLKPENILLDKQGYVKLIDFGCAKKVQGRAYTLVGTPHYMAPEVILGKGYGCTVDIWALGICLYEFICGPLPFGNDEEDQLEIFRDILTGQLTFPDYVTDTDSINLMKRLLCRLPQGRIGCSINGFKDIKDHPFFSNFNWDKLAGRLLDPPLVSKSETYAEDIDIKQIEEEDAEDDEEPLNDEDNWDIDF
Experimental: as §1

PfCDPK1 = target: T2, PfCDPK1 (Plasmodium falciparum, UniProt P62344); assay: CDPK enzyme activity assay, PfCDPK1; type: biochemical, P. falciparum
T2 construct: made in house
T2 sequence (P62344 whole entry): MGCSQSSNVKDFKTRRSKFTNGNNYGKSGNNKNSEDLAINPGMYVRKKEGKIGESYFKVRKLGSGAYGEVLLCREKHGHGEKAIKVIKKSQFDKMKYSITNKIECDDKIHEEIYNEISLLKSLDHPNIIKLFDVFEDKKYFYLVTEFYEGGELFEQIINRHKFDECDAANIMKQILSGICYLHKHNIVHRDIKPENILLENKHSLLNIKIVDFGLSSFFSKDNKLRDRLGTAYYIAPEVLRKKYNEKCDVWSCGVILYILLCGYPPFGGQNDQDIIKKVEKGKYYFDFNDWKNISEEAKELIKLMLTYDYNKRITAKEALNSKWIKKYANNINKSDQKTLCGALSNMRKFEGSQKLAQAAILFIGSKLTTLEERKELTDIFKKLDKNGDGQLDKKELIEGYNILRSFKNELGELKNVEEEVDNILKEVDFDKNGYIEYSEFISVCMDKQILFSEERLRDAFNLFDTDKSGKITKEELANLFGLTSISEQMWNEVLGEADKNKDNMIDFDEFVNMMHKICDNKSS
Experimental: (§2) Recombinant expression of PfCDPK1, PfCDPK4, TgCDPK1 WT, TgCDPK1-G128M, CpCDPK1 and CpCDPK1-G152 M were purified as previously described. […] These reactions were performed in a buffer composed of 1 mM EGTA (pH 7.2), 10 mM MgCl2, 20 mM HEPES pH 7.5 (KOH), 0.1% BSA. The reactions were initiated with addition of 10 μM ATP and 2 mM CaCl2 as enzyme activation reagent. Reaction plates were incubated for 90 min with 90 rpm agitation at 30 °C. […] KinaseGlo (Promega) luminescence-based assay in which luminescence is inversely related to kinase activity and […] was used as previously described.

PfCDPK4 = target: T3, PfCDPK4 (Plasmodium falciparum, UniProt Q8IBS5); assay: CDPK enzyme activity assay, PfCDPK4; type: biochemical, P. falciparum
T3 construct: made in house
T3 sequence (Q8IBS5 whole entry): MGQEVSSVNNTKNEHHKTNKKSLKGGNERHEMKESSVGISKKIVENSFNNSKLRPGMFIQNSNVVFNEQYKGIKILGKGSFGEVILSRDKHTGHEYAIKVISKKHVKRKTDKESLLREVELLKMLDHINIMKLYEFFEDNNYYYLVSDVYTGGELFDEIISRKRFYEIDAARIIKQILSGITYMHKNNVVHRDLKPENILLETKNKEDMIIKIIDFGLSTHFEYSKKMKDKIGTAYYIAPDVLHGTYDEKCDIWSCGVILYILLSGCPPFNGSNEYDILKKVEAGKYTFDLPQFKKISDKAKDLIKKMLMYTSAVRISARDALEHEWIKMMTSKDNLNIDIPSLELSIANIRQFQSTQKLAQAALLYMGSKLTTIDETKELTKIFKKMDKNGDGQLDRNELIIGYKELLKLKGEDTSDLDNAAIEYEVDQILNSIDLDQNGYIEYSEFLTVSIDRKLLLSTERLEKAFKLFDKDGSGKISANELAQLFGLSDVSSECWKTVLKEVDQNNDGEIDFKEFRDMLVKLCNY
Experimental: as §2

[3] = test system: P. falciparum 3D7 (WT) asexual stage parasites; assay: Growth inhibition assay, asexual stage parasites, WT 3D7; type: cell-based; details: Plasmodium falciparum; 3D7 asexual stage parasites, 72 h; mean ± SD, n = 1–2
Experimental: (§3) lines were maintained with O+ human erythrocytes (BioIVT). WT 3D7A10 and T618Q parasites were kind gifts from Dr. David Fidock (Columbia University) and Dr. David Baker (London School of Tropical Medicine and Hygiene), respectively. Growth inhibition assays were performed as previously described. Parasites were grown in RPMI 1640 medium (Sigma-Aldrich, St. Louis, MO, U.S.A.) supplemented with 5 mg/mL Albumax (Gibco), 50 μg/mL hypoxanthine (Sigma-Aldrich), 2 mg/mL Na2CO3 (Sigma-Aldrich), 25 mM HEPES, and 50 μg/mL gentamicin (Gibco). The growth assay was initiated with cultures with >80% ring stage parasites, diluted to a parasitemia of 0.4% and a hematocrit of 1%. Parasites were transferred to a 96-well plate with test compounds, vehicle, or DHA as positive control, and maintained for 72 h in 5% CO2, 5% O2, and 90% N2 in a humidified chamber. Parasite viability at 72 h was determined by addition of SYBR Green I nucleic acid stain (Thermo Fisher Scientific, S7563) and Mitotracker Deep Red (Fisher M422426) followed by flow cytometry on a BD FACSVerse using BD FACSuite software. Data acquired were analyzed using Flowjo software. EC50 values were derived by nonlinear regression in Graph Pad Prism 7.

[4] = test system: P. falciparum T618Q asexual stage parasites; assay: Growth inhibition assay, asexual stage parasites expressing PfPKG T618Q; type: cell-based; details: Plasmodium falciparum, 72 h, read-out: P. falciparum EC50 (±SD) T618Q
Experimental: as §3

TgCDPK1 WT = target: T4, TgCDPK1 WT (Toxoplasma gondii, UniProt Q9BJF5); assay: biochemical
T4 sequence (Q9BJF5 1-507): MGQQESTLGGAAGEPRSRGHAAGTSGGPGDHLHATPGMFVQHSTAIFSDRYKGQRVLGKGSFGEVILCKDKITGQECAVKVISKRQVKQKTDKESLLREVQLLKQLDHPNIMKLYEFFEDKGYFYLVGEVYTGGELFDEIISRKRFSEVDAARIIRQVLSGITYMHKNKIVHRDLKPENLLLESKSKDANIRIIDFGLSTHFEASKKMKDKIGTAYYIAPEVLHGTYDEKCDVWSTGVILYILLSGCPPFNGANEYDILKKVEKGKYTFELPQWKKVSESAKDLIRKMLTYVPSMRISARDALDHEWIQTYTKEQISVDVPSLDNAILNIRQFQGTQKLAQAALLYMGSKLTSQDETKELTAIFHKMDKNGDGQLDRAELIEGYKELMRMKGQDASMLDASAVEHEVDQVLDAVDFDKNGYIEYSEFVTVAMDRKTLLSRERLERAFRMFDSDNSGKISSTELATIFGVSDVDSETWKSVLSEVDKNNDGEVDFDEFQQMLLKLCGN
Experimental: as §2

TgCDPK1-G128M = target: T5, TgCDPK1-G128M (Toxoplasma gondii, UniProt Q9BJF5, G128M); assay: CDPK enzyme activity assay, TgCDPK1 G128M; type: biochemical, T. gondii
T5 construct: made in house
T5 sequence (Q9BJF5 whole entry G128M): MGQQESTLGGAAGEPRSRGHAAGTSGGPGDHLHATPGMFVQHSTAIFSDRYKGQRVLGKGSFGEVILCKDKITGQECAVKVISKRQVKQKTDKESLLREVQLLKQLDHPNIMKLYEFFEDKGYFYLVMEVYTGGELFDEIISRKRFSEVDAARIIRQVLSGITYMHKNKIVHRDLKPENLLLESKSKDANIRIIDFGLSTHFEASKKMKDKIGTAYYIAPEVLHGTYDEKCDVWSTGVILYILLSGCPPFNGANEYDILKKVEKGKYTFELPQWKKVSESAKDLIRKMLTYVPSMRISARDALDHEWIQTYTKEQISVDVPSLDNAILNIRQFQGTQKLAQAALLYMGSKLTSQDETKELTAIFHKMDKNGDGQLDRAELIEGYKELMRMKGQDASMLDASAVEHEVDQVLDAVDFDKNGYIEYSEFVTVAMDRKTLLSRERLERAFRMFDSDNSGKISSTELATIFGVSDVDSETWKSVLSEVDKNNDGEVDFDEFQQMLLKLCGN
Experimental: as §2

CpCDPK1 = target: T6, CpCDPK1 (Cryptosporidium parvum, UniProt A3FQ16); assay: CDPK enzyme activity assay, CpCDPK1 WT; type: biochemical, C. parvum
T6 construct: made in house
T6 sequence (A3FQ16 1-538): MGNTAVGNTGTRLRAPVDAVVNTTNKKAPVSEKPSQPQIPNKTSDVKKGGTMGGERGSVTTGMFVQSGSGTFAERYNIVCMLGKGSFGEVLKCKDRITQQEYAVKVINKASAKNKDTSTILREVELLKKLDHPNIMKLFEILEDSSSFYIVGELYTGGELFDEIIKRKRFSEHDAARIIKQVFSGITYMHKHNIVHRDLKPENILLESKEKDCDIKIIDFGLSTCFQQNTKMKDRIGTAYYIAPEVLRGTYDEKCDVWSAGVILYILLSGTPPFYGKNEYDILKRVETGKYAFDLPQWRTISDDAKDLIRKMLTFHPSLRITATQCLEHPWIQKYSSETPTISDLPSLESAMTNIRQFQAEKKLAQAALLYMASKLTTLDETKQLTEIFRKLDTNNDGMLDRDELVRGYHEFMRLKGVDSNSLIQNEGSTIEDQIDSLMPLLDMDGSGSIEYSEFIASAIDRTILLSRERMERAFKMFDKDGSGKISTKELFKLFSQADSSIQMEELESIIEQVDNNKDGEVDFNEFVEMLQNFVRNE
Experimental: as §2

CpCDPK1-G152M = target: T7, CpCDPK1-G152M (Cryptosporidium parvum, UniProt A3FQ16, G152M); assay: CDPK enzyme activity assay, CpCDPK1 G152M; type: biochemical, C. parvum
T7 construct: made in house
T7 sequence (A3FQ16 whole entry G152M): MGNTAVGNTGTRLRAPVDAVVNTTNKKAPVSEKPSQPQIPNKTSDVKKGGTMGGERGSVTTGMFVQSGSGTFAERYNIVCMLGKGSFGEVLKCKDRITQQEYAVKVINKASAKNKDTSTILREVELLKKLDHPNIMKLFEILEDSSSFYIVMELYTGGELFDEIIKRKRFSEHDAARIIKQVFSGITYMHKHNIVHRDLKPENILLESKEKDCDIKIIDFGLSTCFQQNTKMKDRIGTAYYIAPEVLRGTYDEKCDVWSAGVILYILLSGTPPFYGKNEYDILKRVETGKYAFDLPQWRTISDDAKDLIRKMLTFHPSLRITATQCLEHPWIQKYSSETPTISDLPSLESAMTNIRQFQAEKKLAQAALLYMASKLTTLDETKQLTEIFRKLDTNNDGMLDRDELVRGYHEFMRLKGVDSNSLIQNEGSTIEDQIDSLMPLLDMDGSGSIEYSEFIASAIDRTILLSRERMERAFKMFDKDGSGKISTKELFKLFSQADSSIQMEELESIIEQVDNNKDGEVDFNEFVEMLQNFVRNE
Experimental: as §2

[5] = test system: strain UGA1 expressing nanoluciferase, replication in HCT-8 cells; assay: Growth inhibition assay in HCT-8 cells (nanoluciferase strain UGA1); type: cell-based, C. parvum; details: Cryptosporidium parvum, 48 h, nanoluciferase readout, (±SD), read-out: EC50 of replication measured in HCT-8 cells
Experimental: strain UGA1 transfected to express nanoluciferase (Nluc) and obtained from the University of Arizona after propagation in newborn calves. HCT-8 cells were added to a 384-well plate and allowed to grow for 48 h to reach 75–90% confluence. The medium was removed, and test compounds were added in serial dilutions prior to the addition of 1000 oocysts per well in RPMI 1640 medium supplemented with 10% heat inactivated FBS and 1% penicillin streptomycin. Plates were incubated for 48 h; Nano-Glo luciferase reagent (Promega, Madison, WI) was then added, and the plates were read on an EnVision multilabel plate reader (PerkinElmer, Waltham, MA). EC50 curves were calculated as previously described using Prism v6.07 (GraphPad Software, La Jolla, CA).

[6] = test system: T. gondii tachyzoites, parental control; assay: Proliferation EC50, host fibroblast nuclei count, parental control; type: cell-based; details: Toxoplasma gondii
Experimental: (§4) Human Foreskin Fibroblasts (HFF) were cultured in DMEM, with D-glucose (4.5 g/L), L-glutamine, and sodium pyruvate (110 mg/L) (Gibco) that were further supplemented with 10% Fetal Clone 1 serum (FCS)(HyClone), 50 U/mL penicillin (Gibco), […] streptomycin (Gibco), and 1× GlutaMax (Gibco). HFF cells were cultured in T25 flasks (Corning) in a humidified incubator at 37 °C and 5% CO2. For culture, media was replaced with DMEM, as described above, with 1% FCS. Mutant strains were created as described in.
(§5) Presence of desired mutations in parasite lines, TgCDPK1^G128M, TgCDPK1^G128M + TgMAPKL1^L162Q and […] was verified through sequencing. Compounds were dissolved in DMSO and serially diluted 4-fold across the first 10 wells of a 96 well plate, with the highest drug concentration in the first column being 25 μM. The strain of was then added to the first 11 columns of the 96-well plate at a density of 4000 parasites per well. The 11th column contained no compounds, and the 12th column contained no parasites and no compound. After 5 days of incubation at 37 °C and 5% CO2, cells were washed with PBS and fixed with 4% PFA in PBS (Thermo Fisher Scientific, Waltham, MA, USA). After fixing, cells were washed three times with PBS and stained with 300 nM DAPI in PBS before being washed again three times with PBS.
(§6) Images were acquired in an ImageXpress Pico Automated Cell Imaging System (Molecular Devices, San Jose, CA, USA) with a 4× objective using UV fluorescence. Following imaging, ImageXpress software was used to count objects with a fluorescence intensity ≥8 and a size of 12–30 μm, giving a total count of host cell nuclei for each well. EC50 were determined based on the number of remaining fibroblast nuclei using a nonlinear regression analysis with GraphPad Prism software version 10.0.0 for Windows, GraphPad Software, Boston, Massachusetts USA. Each compound was tested in ≥3 experiments in quadruplicate rows.

[7] = test system: T. gondii tachyzoites expressing TgPKG T761Q; assay: Proliferation EC50, host fibroblast nuclei count, TgPKG T761Q mutant; type: cell-based
Experimental: as §4, §5, §6

[8] = test system: T. gondii tachyzoites expressing TgCDPK1 G128M; assay: Proliferation EC50, host fibroblast nuclei count, TgCDPK1 G128M mutant; type: cell-based
Experimental: as §4, §5, §6

[9] = test system: T. gondii tachyzoites expressing TgCDPK1 G128M; TgMAPKL-1 L162Q; assay: Proliferation EC50, host fibroblast nuclei count, double mutant; type: cell-based; details: Toxoplasma gondii, Fibroblast, read-out: T. gondii EC50 (±SD) CDPK1 G128M; MAPKL1 L162Q
Experimental: as §4, §5, §6

[10] = test system: T. gondii RH strain expressing β-galactosidase, parental; assay: Proliferation EC50, β-galactosidase readout, parental strain; type: cell-based; details: Toxoplasma gondii, 72 h, read-out: T. gondii EC50 (±SD) CONTROL
[11] = test system: T. gondii RH strain with L162Q substitution in TgMAPKL1; assay: Proliferation EC50, β-galactosidase readout, TgMAPKL1 L162Q; type: cell-based
Experimental: as §4
An RH strain of with an L162Q substitution in TgMAPKL1 introduced by CRISPR/Cas9 site directed mutagenesis into a clone expressing β-galactosidase was used to determine the EC50s for proliferation. Compounds were dissolved in DMSO and serially diluted 4-fold across the first 11 columns of a 96 well plate from the highest concentration of 25 μM leaving the final column with no drugs. was added to the first 11 columns of the 96 well plate at 4000 parasites per well. The last column contained no compound. Plates were incubated 72 h at 37 °C and 5% CO2. were quantified by spectrophotometrically measuring the β-galactosidase concentration of each well after cell lysis and exposure to chlorophenol red β-galactopyranose (Sigma-Aldrich, St. Louis, MO) substrate. Each compound was tested at least three times in quadruplicate.

## O=C(c1nccs1)N1CC[C@H](Nc2nccc(-n3cc(C4CC4)nc3-c3ccccc3)n2)C1 [(S)-RY-1-165]
PfPKG [1]
  PfPKG inhibition (in words): inactive

## O=C(c1nccs1)N1CC[C@@H](Nc2nccc(-n3cc(C4CC4)nc3-c3ccccc3)n2)C1 [(R)-RY-1-165]
PfPKG [2]
  IC50: 0.24 µM
PfPKG T618Q
  IC50: > 10 µM
PfCDPK1
  IC50: 10.1 µM
PfCDPK4
  IC50: 1.7 µM
[3]
  EC50: 11 µM
[4]
  EC50: 13.4 µM
TgCDPK1 WT
  IC50: 0.05 µM
TgCDPK1 WT; TgCDPK1 versus PfCDPK4, 90 min
  IC50 for TgCDPK1 lower than for PfCDPK4: over 30 fold
TgCDPK1-G128M
  IC50: > 30 µM
TgCDPK1-G128M; G128M versus WT enzyme
  TgCDPK1 G128M mutant enzyme less sensitive: at least 500 fold
CpCDPK1
  IC50: 0.17 µM
CpCDPK1-G152M
  IC50: > 30 µM
CpCDPK1-G152M; G152M versus WT enzyme
  CpCDPK1 G152M mutant enzyme less sensitive: at least 175 ×
[5]
  EC50: 17.9 µM
[6]; read-out: T. gondii EC50 (±SD) CONTROL, tachyzoites, parental control of CDPK1 G128M, mean ± SD, n = 3–5
  EC50: 0.86 µM
[6]; read-out: T. gondii EC50 (±SD) CONTROL, tachyzoites, parental control of PKG T761Q, mean ± SD, n = 3–5
  EC50: 0.26 µM
[6]; read-out: T. gondii EC50 (±SD) CONTROL, tachyzoites, parental control of the double mutant, mean ± SD, n = 3–5
  EC50: 0.54 µM
[7]; Toxoplasma gondii, Fibroblast, read-out: T. gondii EC50 (±SD) PKGT761Q
  EC50: 0.39 µM
[7]; in 2 experiments
  change in relative EC50, T761Q parasites versus parental controls: no change
[7]; in 3 experiments
  increase in EC50 against T761Q parasites relative to parental controls: 1.8–2.8 fold
[8]; TgCDPK1 G128M versus parental
  EC50 for G128M parasites higher compared to the parental strain: 1.7 fold
[8]; Toxoplasma gondii, Fibroblast, read-out: T. gondii EC50 (±SD) CDPK1 G128M
  EC50: 1.53 µM
[9]
  EC50: 1.57 µM
[10]
  EC50: 0.53 µM
[11]
  increase in EC50 against TgMAPKL-1 L162Q parasites versus parental strain: did not demonstrate a significant change in EC50
[11]; Toxoplasma gondii, 72 h, read-out: T. gondii EC50 (±SD) MAPKL1 L162Q
  EC50: 0.56 µM
